In patent US11311624B2, “Inhibitors of MEK/PI3K, JAK/MEK, JAK/PI3K/mTOR and MEK/PI3K/mTOR biological pathways and methods for improving lymphatic uptake, bioavailability, and solubility of therapeutic compounds” (THE REGENTS OF THE UNIVERSITY OF MICHIGAN, priority 2017, dated 2022):
Where two headings read alike, the source gives them in different places.

Columns and labels:
PI3Kβ = PI3Kβ (Homo sapiens, UniProt P42338); assay: In vitro inhibition of PI3Kβ; assay type: biochemical
PI3Kδ = PI3Kδ (Homo sapiens, UniProt O00329); assay: In vitro inhibition of PI3Kδ; assay type: biochemical
PI3Kδ, sequence (O00329 whole entry, species assumed): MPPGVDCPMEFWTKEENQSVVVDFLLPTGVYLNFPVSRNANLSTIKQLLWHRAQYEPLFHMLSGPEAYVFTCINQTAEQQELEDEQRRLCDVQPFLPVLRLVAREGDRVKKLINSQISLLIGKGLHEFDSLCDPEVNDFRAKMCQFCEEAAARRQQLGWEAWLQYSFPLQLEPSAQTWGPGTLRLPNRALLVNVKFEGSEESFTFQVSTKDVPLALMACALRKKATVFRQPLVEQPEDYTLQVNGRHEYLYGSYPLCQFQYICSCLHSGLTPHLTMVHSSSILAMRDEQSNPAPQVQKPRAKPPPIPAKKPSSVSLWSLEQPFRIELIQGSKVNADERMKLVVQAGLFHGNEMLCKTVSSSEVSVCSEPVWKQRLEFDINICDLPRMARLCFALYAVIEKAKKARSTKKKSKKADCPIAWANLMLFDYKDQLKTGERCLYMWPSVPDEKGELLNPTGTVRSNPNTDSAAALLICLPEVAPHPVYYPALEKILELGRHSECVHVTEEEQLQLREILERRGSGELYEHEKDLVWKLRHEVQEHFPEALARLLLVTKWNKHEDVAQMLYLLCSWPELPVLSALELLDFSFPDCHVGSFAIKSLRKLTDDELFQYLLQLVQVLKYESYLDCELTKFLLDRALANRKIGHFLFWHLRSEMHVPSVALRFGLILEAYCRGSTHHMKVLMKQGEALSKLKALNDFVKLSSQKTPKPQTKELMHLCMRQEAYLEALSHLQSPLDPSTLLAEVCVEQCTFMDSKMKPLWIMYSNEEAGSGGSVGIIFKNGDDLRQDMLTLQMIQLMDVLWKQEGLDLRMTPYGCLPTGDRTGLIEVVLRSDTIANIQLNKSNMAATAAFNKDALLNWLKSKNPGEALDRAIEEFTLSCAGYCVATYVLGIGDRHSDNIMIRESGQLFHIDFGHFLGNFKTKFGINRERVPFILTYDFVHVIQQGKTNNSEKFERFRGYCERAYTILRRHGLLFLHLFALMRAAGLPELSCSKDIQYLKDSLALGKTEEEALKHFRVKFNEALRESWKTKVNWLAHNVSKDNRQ
PI3Kδ, sequence (P27986 whole entry partner, species assumed): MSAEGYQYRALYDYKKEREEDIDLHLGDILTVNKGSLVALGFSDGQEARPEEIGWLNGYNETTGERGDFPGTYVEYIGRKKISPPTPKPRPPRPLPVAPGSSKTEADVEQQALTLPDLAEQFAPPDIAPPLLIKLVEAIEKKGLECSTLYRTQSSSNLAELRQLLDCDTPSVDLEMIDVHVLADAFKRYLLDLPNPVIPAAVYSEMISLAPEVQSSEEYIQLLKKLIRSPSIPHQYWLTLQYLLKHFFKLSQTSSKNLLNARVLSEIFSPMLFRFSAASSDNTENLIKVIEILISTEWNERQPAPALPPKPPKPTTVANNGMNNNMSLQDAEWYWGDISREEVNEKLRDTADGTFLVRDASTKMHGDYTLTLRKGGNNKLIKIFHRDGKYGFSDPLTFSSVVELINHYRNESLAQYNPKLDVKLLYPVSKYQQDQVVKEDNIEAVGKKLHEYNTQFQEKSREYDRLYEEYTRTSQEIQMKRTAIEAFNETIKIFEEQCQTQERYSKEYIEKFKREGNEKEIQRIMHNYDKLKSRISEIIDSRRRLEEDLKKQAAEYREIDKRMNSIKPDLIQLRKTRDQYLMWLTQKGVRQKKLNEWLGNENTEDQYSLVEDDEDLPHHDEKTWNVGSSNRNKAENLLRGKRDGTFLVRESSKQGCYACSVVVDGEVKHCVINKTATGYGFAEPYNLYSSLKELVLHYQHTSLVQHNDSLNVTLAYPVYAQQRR

MEK1 = MEK1 (Homo sapiens, UniProt Q02750); assay: In vitro inhibition of MEK1; assay type: biochemical
PI3Kα = PI3Kα (Homo sapiens, UniProt P42336); assay: In vitro inhibition of PI3Kα; assay type: biochemical
PI3Kα, sequence (P42336 whole entry, species assumed): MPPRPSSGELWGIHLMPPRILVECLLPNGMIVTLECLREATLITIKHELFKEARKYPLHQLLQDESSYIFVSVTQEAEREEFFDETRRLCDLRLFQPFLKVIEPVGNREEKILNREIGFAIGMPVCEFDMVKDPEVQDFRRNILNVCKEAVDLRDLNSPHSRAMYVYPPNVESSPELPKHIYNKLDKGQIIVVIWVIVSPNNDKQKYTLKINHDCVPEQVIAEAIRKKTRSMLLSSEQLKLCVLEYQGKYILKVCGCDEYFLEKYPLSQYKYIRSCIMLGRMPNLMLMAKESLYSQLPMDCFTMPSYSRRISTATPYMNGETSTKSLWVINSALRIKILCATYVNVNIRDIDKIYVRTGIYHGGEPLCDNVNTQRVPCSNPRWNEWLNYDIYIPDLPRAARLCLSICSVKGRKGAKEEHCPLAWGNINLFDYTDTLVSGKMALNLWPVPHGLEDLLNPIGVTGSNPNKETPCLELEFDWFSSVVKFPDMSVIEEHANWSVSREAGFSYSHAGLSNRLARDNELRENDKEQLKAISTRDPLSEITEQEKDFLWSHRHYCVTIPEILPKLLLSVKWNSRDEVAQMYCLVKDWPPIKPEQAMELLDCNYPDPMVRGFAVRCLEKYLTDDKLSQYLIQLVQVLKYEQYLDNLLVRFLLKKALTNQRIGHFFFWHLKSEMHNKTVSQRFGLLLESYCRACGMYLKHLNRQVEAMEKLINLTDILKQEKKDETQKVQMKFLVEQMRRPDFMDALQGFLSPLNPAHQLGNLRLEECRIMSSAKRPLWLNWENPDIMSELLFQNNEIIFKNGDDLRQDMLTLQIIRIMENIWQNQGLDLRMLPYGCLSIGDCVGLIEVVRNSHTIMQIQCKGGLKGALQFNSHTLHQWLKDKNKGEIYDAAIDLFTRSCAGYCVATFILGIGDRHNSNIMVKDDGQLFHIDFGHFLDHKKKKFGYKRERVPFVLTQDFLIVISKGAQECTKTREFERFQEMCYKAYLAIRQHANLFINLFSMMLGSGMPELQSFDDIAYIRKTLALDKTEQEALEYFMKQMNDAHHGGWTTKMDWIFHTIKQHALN
PI3Kα, sequence (P27986 whole entry partner, species assumed): as the sequence (P27986 whole entry partner, species assumed) above

PI3Kγ = PI3Kγ (Homo sapiens, UniProt P48736); assay: In vitro inhibition of PI3Kγ; assay type: biochemical
PI3Kγ, sequence (P48736 whole entry, species assumed): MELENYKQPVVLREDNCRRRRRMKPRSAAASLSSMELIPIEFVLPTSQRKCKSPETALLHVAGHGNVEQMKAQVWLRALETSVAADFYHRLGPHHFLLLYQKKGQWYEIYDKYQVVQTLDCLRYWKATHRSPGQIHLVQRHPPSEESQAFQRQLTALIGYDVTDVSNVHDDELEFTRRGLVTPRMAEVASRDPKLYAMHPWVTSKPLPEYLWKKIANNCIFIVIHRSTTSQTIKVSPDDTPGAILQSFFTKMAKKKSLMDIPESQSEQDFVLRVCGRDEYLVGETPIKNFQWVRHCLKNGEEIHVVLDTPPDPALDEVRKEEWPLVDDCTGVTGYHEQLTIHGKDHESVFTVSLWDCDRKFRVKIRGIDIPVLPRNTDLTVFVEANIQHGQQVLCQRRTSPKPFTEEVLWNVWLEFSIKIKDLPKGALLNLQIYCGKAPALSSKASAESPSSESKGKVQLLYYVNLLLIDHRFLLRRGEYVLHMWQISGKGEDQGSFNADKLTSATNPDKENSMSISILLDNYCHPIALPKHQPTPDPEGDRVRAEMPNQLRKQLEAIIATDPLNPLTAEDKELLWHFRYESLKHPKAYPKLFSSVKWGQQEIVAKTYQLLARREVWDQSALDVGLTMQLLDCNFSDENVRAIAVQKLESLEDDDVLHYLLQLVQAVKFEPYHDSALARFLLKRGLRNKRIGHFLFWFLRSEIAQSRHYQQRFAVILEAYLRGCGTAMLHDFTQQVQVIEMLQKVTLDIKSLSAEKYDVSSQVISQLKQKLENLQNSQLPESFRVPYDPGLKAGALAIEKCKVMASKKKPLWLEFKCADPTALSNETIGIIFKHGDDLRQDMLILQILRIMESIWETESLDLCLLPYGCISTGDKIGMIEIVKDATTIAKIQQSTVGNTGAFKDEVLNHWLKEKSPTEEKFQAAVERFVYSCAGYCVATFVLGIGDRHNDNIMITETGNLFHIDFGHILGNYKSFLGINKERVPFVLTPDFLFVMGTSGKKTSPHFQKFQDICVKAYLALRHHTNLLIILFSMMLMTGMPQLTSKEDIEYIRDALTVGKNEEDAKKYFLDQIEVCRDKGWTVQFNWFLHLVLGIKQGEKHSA

[1] = Tissue concentration partitioning (plasma, mesenteric lymph node, fat) after single oral dose in Maisine, LC-MS/MS; assay type: in vivo; conditions: mouse, mice, single oral 10 mg in Maisine; for Kp at 4 h: 4 hour time point; for concentration at 4 h: 4 hours post-dosing
From the text: Inhibitor compounds were synthesized to discover the underlying parameters needed in the development of chemical modifiers compatible with attachment to drug molecules to provide a drug having the physiochemical characteristics needed for uptake into the lymphatic system. […] This excipient vehicle contains long chain fatty acids and is used for hydrophobic compound solubilization.
Results were quantified using LC-MS/MS for plasma, mesenteric lymph node (LN) and mesenteric fat tissues.

[2] = system: TGFα-transgenic mouse model of idiopathic pulmonary fibrosis (IPF); assay: Dox-inducible TGFα-transgenic mouse model of idiopathic pulmonary fibrosis; assay type: in vivo, mice; conditions: 400 mg/kg PO, 3 week follow up CT scan
Experimental: Treatment of inflammatory-mediated fibrotic diseases were also evaluated using a doxycycline (Dox)-inducible transforming growth factor-α (TGFα)-transgenic mouse model of idiopathic pulmonary fibrosis (IPF) expressing lung-epithelial specific TGFα following Dox administration. […] Weekly lung micro-CT exams were used for assessment of fibrotic burden. Nintenadib (n=5) (100 mg/kg) was also evaluated for comparison. Lung tissue was examined microscopy in a subset of animals at the conclusion of the study.

pERK1/2 and pAKT = assay: Immunoblot of treated A375 melanoma cells (FIG. 5A); assay type: cell-based, human; conditions: 1 h, 20 μM
Experimental: (§1) ADME (absorption, distribution, metabolism, and excretion) studies of ST-168 have shown that ST-168 is bioavailable following administration in mice.
In FIG. 5A, a two-dimensional assessment of ST-162 and ST-168. […] In FIG. 5B, assessment of dead cells in 3D melanoma spheroids post-treatment with ST-162 and ST-168. A375 melanoma spheroids were treated for 72 h with 20 μM each of ST-162 or ST-168 before staining with Calcein AM and ethidium homodimer-1 for fluorescent microscopy (live/dead viability assay, Molecular Probes). Green fluorescence indicates live cells, and red fluorescence indicates dead cells. Images were obtained with an Olympus IX70 fluorescent microscope using the SPOT advance program. In FIG. 5C tumor growth inhibition by ST-162 and ST-168 in a melanoma xenograft model. Tumor implantation consisted of inoculation of 5×10^6 A375 cells suspended in 100 μL of media into the flank of nude mice. Treatment was initiated once tumors reached >100 mm^3. […] Changes in tumor growth of A375 xenografts were assessed by conducting MRI imaging twice per week. Tumor volume changes between ST-162 and ST-168 treatment were determined to be statistically significant (p<0.05) using an unpaired Student's t test at the last time point. […]

[3] = Plasma and lymphatic tissue levels after single oral dose of ST-168 or PD901, LC-MS/MS (FIG. 3); assay type: in vivo; conditions: mouse; for Kp at 4 h: lymphatic tissue / plasma, single oral dose in ORA-Plus suspension, 4 hours post-administration, read-out: lymphatic/plasma ratio
Experimental: LC-MS/MS quantification of drug concentrations in mouse tissues over time following a single oral dose is shown. FIG. 3 contains block diagrams for formulations in ORA-Plus liquid particulate suspension: FIG. 3A compound ST-168 levels at 4 hours in plasma and lymphatic tissue versus the MEK inhibitor PD0325901 (henceforth referred to as PD901). FIG. 3B ST-168 time dependence in plasma and lymphatic tissue, and formulated in Maisine, FIG. 3C ST-168 time dependence in plasma and lymphatic tissue following 100 mg/kg dose.
In FIG. 3, LC-MS/MS quantification of drug concentrations in mouse tissues over time are shown following a single oral suspension dose of ST-168 delivered in ORA-Plus®. ORA-Plus is an aqueous-based vehicle (ORA-Plus Product Data Sheet available at Perrigo Company's website) containing a synergistic blend of suspending agents having a high degree of colloidal activity. The suspending agents form a structured, gel-like matrix which suspends particles and allow for little settling. ORA-Plus is buffered to a slightly acidic pH to help reduce degradation of medicinal agents through oxidation. The ORA-Plus contains purified water, microcrystalline cellulose, carboxymethylcellulose sodium, xanthan gum, carrageenan, calcium sulfate, trisodium phosphate, citric acid and sodium phosphate as buffers and dimethicone antifoam emulsion, preserved with methylparaben and potassium sorbate. […] Any compound delivered in ORA-Plus is distributed to the plasma and lymphatic system based upon the physiochemical properties of the drug. Thus, the formulation itself only serves to provide for a suspension of drug particulates and dissolution of drug will be based upon water solubility.
This is an important distinction showing that Compound ST-168 has lymphatic absorptive properties because ORA-Plus is not a long chain fatty acid like Maisine. […] Data presented in FIGS. 3A through 3D reveal that the mEG linker technology for chemical coupling with drugs produces solubility properties consistent with formulation and bioavailability required for drug-like pharmaceutical characteristics and improved lymphatic absorption.

A375 xenografts = assay: Tumor growth inhibition in melanoma xenograft model (FIG. 5C); assay type: in vivo, nude mice
Experimental: as §1
In FIG. 5A, a two-dimensional assessment of ST-162 and ST-168. […] In FIG. 5B, assessment of dead cells in 3D melanoma spheroids post-treatment with ST-162 and ST-168. A375 melanoma spheroids were treated for 72 h with 20 μM each of ST-162 or ST-168 before staining with Calcein AM and ethidium homodimer-1 for fluorescent microscopy (live/dead viability assay, Molecular Probes). Green fluorescence indicates live cells, and red fluorescence indicates dead cells. Images were obtained with an Olympus IX70 fluorescent microscope using the SPOT advance program. In FIG. 5C tumor growth inhibition by ST-162 and ST-168 in a melanoma xenograft model. Tumor implantation consisted of inoculation of 5×10^6 A375 cells suspended in 100 μL of media into the flank of nude mice. Treatment was initiated once tumors reached >100 mm^3. Mice were randomized into two treatment groups and treated once daily with either vehicle (200 μL of OraPlus) or 400 mg/kg each of ST-162 or ST-168 by oral gavage until sacrifice (42 days). Changes in tumor growth of A375 xenografts were assessed by conducting MRI imaging twice per week. Tumor volume changes between ST-162 and ST-168 treatment were determined to be statistically significant (p<0.05) using an unpaired Student's t test at the last time point. Experimental design: n=4-6 tumors/treatment group.

[4] = ADME studies of ST-168 in mice; assay type: in vivo
From the text: as §1

[5] = Tolerance in colorectal, glioma and melanoma mouse xenograft models; assay type: in vivo; conditions: 400 mg/kg orally, suspended in ORA-Plus, glioma, melanoma xenograft models
From the text: as §1

Class 1 PI3K isoforms = conditions: read-out: selectivity towards the Class 1 PI3K isoforms; cited from earlier work
mTOR = mTOR (Homo sapiens, UniProt P42345); assay: In vitro inhibition of mTOR; assay type: biochemical; conditions: Table 10B, inhibitory activity, unit inferred
[6] = Table 14, read-out: IC50 (nM) PI3Kβ
[7] = Table 14, read-out: IC50 (nM) PI3Kδ
[8] = Table 14, read-out: IC50 (nM) PI3Kα
[9] = Table 14, read-out: IC50 (nM) PI3Kγ
[10] = mesenteric lymph node / plasma, read-out: lymph/plasma ratio
[11] = Table 10B, inhibitory activity, unit inferred, read-out: PI3Kβ
[12] = Table 10B, inhibitory activity, unit inferred, read-out: PI3Kα
[13] = Table 10B, inhibitory activity, unit inferred, read-out: PI3Kγ

PI3Kβ, sequence (P42338 whole entry, species assumed): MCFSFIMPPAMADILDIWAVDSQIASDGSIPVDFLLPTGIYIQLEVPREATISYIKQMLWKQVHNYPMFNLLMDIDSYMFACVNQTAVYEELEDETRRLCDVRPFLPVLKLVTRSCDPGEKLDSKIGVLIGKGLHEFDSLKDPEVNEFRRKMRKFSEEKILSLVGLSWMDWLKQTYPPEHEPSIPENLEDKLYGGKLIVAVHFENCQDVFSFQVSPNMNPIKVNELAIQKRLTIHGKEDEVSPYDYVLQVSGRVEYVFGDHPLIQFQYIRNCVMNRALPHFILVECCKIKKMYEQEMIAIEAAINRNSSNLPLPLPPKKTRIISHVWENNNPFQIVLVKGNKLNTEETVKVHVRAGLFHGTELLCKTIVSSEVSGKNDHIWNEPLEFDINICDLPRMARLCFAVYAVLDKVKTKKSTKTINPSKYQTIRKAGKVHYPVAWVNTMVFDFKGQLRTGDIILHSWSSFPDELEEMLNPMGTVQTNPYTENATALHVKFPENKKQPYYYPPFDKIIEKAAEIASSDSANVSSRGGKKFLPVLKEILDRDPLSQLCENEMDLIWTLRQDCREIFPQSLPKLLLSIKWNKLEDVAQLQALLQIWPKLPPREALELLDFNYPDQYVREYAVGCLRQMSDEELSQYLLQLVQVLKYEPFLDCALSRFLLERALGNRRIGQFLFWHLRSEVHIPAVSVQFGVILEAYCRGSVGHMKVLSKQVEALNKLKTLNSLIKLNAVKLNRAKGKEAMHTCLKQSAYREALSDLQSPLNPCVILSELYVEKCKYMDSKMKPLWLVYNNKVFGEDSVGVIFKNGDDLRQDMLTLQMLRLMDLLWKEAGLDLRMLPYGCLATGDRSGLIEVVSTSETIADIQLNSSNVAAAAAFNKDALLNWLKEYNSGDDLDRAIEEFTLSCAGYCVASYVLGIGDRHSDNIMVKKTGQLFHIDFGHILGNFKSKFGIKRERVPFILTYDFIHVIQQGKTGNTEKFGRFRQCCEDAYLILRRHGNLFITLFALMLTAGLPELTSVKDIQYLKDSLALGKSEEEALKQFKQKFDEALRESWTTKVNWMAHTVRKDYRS
PI3Kβ, sequence (P27986 whole entry partner, species assumed): as the sequence (P27986 whole entry partner, species assumed) above

O=C(NOCCOCCOCCOCCNc1nc(N2CCOCC2)nc(-n2c(C(F)F)nc3ccccc32)n1)c1ccc(F)c(F)c1Nc1ccc(F)cc1F [ST-6-02]
IC50 (PI3Kβ; [6]): 1540 ± 188 nM
IC50 (PI3Kδ; [7]): 236 ± 29 nM
IC50 (MEK1): 124 ± 11 nM
IC50 (PI3Kα; [8]): 130 ± 13 nM
IC50 (PI3Kγ; [9]): 2740 ± 485 nM

O=C(NCCCCCCCCCCCNC(=O)c1cccc2ccccc12)c1cccc2ccccc12 [Compound 4]
Kp at 4 h [1, 10]: ~6

O=C(NCCOCCOCCOCCNC(=O)c1ccccc1)c1ccccc1 [Compound 1]
Kp at 0.5 h ([1]; mesenteric lymph node / plasma, 0.5 hours, read-out: lymph/plasma ratio): ~0.6
Kp at 4 h [1, 10]: ~1
concentration at 4 h ([1]; mesenteric lymph node, read-out: lymphatic concentration): ~0.085 µg/mL
concentration at 4 h ([1]; plasma, read-out: plasma concentration): ~0.095 µg/mL

O=C(NCCOCCOCCOCCNC(=O)c1cccc2ccccc12)c1cccc2ccccc12 [Compound 3]
Kp at 4 h [1, 10]: ~5

O=C(NOCCOCCOCCOCCC(=O)N1CCN(c2nc(N3CCOCC3)nc(-n3c(C(F)F)nc4ccccc43)n2)CC1)c1ccc(F)c(F)c1Nc1ccc(I)cc1F [ST-168]
reversal of lung fibroproliferative disease and pleural thickness (CT) [2]: strong activity for reversal
down regulation of pERK1/2 and pAKT in cells (pERK1/2 and pAKT): down regulate
Kp at 4 h [3]: ~120
partitioning between lymphatic/plasma over time ([3]; single oral dose of 400 mg/kg in ORA-Plus): maintained over a 24 hour time period
lymphatic uptake (tissue concentration levels) ([3]; single oral doses of 100 mg/kg and 400 mg/kg in Maisine, 2, 4, and 24 hour): extraordinarily high lymphatic uptake
in vivo activity for suppression of MEK1/PI3K kinase activities in solid tumors, compared to ST-162 (A375 xenografts; 400 mg/kg oral gavage once daily, A375 xenografts): superior in vivo activity
tumor growth (A375 xenografts; 400 mg/kg oral once daily, initial 30 days): tumor stasis
bioavailability following administration [4]: bioavailable
tolerance / observed toxicities [5]: no observed toxicities
IC50 (PI3Kβ; [11]): 1480 ± 377 nM
IC50 (PI3Kα; [12]): 69.2 ± 2.2 nM
IC50 (PI3Kγ; [13]): 2290 ± 241 nM

CN(C)CCN(CCO)c1nc(N2CCOCC2)nc(-n2c(C(F)F)nc3ccccc32)n1 [ST-5-44]
IC50 (PI3Kβ; [6]): 627 ± 174 nM
IC50 (PI3Kδ; [7]): 46.7 ± 3.3 nM
IC50 (PI3Kα; [8]): 148 ± 22 nM
IC50 (PI3Kγ; [9]): 869 ± 11 nM

O=C(NOC[C@H](O)CO)c1ccc(F)c(F)c1Nc1ccc(I)cc1F [Compound 901, reference compound]
Kp at 4 h [3]: ~1.2

COc1ccc(-c2ccc3c(N4CCOC[C@H]4C)nc(N4CCOC[C@H]4C)nc3n2)cc1CO [AZD 8055]
IC50 (Class 1 PI3K isoforms): > 1 µM

CN(C)C1CCN(C(=O)c2ccc(NC(=O)Nc3ccc(-c4nc(N5CCOCC5)nc(N5CCN(C(=O)CCOCCOCCOCCONC(=O)c6ccc(F)c(F)c6Nc6ccc(I)cc6F)CC5)n4)cc3)cc2)CC1 [ST-185]
IC50 (PI3Kβ; [11]): 1620 ± 442 nM
IC50 (PI3Kδ; Table 10B, inhibitory activity, unit inferred, read-out: PI3Kδ): 55.3 ± 3.9 nM
IC50 (mTOR): 0.0504 ± 0.0042 µM
IC50 (PI3Kα; [12]): 42.3 ± 4 nM
IC50 (PI3Kγ; [13]): 325 ± 78 nM
